Measurements: US20080132569A1, “Antifungal Compositions for Inhibiting Growth of Wood Decay Fungi and Use Thereof” (priority 2006, published 2008)
≈ marks a conversion by molar mass, not a printed value. Like-named read-outs stand apart in the source and are kept apart here.

What was measured:
[1] = Antifungal assay, mycelium growth on PDA containing the chemical; conditions: L. betulina; for Antifungal index: Example 3, FIG. 2(A)
[2] = Antifungal activity on paper (CNS 2690, TAPPI T487 cm-93); conditions: A. niger, 14 days
[3] = as above; conditions: A. terreus, 14 days
[4] = Antifungal assay, mycelium growth on PDA containing the chemical; conditions: G. trabeum
[5] = as above; conditions: L. sulphureus
[6] = Antifungal assay, mycelium growth on PDA (fungi); conditions: soft rot, Cu tolerant, and brown rot fungi
[7] = Antifungal assay, mycelium growth on PDA containing the chemical; conditions: S. commune; for Antifungal index (%): Table 2
[8] = Antifungal assay, mycelium growth on PDA (fungi)
[9] = Antifungal assay, mycelium growth on PDA containing the chemical; conditions: F. pinicola; for Antifungal index (%): Table 2
[10] = Antifungal assay, mycelium growth on PDA (fungi); conditions: 100 μg/ml; W. extensa, P placenta, L. sulphureus, G. trabeum and F. pinicola
[11] = Antifungal assay, mycelium growth on PDA containing the chemical; conditions: C. globosum; for Antifungal index (%): Table 2
[12] = as above; conditions: T. versicolor
[13] = as above; conditions: A. taxa; for Antifungal index (%): Table 2
[14] = as above; conditions: P. placenta; for Antifungal index (%): Table 2
[15] = as above; conditions: W. extensa; for Antifungal index (%): Table 2
[16] = Antifungal activity on paper (CNS 2690, TAPPI T487 cm-93); conditions: C. globosum, 14 days
[17] = Example 1, FIG. 1(A), read-out: IC50 (concentration that inhibited 50% of the mycelium growth)
[18] = 100 μg/cm^2 on filter paper, listed as octyl gallate
[19] = 400 μg/cm^2 on filter paper, listed as octyl gallate

## CCCCCCCCOC(=O)c1cc(O)c(O)c(O)c1 [Octyl gallate, octyl gallate]
[1]; 25 μg/ml
  Antifungal index: 16%
[1]; 25 μg/ml, Table 2
  Antifungal index (%): 16%
[1]; 50 μg/ml, Table 2
  Antifungal index (%): 28%
[1]; 100 μg/ml
  Antifungal index: 42%
[1]; 100 μg/ml, Table 1
  Antifungal index (%): 43 ± 2.5%
[1]; 100 μg/ml, Table 2
  Antifungal index (%): 41%
[1]; 200 μg/ml, Table 2
  Antifungal index (%): 88%
[1]; [17]
  IC50: 470 µM
[1]; Table 3
  IC50 value: 137.6 µg/mL (≈ 487 µM)
[2]; 100 μg/cm^2 on filter paper
  Percent inhibition ratio: 72 ± 7.6%
[2]; [18]
  Percent inhibition ratio: 72%
[2]; 400 μg/cm^2 on filter paper
  Percent inhibition ratio: 99 ± 1.0%
[2]; [19]
  Percent inhibition ratio: 99%
[3]; 100 μg/cm^2 on filter paper
  Percent inhibition ratio: 51 ± 4.6%
[3]; [18]
  Percent inhibition ratio: 51%
[3]; 400 μg/cm^2 on filter paper
  Percent inhibition ratio: 94 ± 8.5%
[3]; [19]
  Percent inhibition ratio: 94%
[4]; 25 μg/ml, Example 3, FIG. 2(B)
  Antifungal index: 30%
[4]; 50 μg/ml, Table 2
  Antifungal index (%): 49%
[4]; 100 μg/ml, Table 1
  Antifungal index (%): 85 ± 26.2%
[4]; 100 μg/ml, Table 2
  Antifungal index (%): 77%
[4]; 200 μg/ml, Table 2
  Antifungal index (%): 93%
[4]; [17]
  IC50: 240 µM
[4]; Table 3
  IC50 value: 50.8 µg/mL (≈ 180 µM)
[5]; 50 μg/ml, Table 2
  Antifungal index (%): 85%
[5]; 100 μg/ml, Table 1
  Antifungal index (%): 100 ± 0%
[5]; 100 μg/ml, Table 2
  Antifungal index (%): 96%
[5]; 200 μg/ml, Table 2
  Antifungal index (%): 100%
[5]; [17]
  IC50: 40 µM
[5]; Table 3
  IC50 value: 50.6 µg/mL (≈ 179 µM)
[6]
  IC50 value: less than 50 μg/ml
[7]; 25 μg/ml
  Antifungal index (%): 16%
[7]; 50 μg/ml
  Antifungal index (%): 40%
[7]; 100 μg/ml
  Antifungal index (%): 60%
[7]; 200 μg/ml
  Antifungal index (%): 83%
[7]; Table 3
  IC50 value: 114 µg/mL (≈ 404 µM)
[8]; 100 μg/ml, L. betulina, T versicolor and S. commune
  inhibition (antifungal index), span over three fungi: 41˜69%
[8]; white rot fungi
  IC50 value: less than 200 μg/ml
[9]; 25 μg/ml
  Antifungal index (%): 52%
[9]; 50 μg/ml
  Antifungal index (%): 78%
[9]; 100 μg/ml
  Antifungal index (%): 94%
[9]; 200 μg/ml
  Antifungal index (%): 100%
[9]; Table 3
  IC50 value: <25 µg/mL
[10]
  inhibition (antifungal index), span over five fungi: 75˜96%
[11]; 25 μg/ml
  Antifungal index (%): 82%
[11]; 50 μg/ml
  Antifungal index (%): 100%
[11]; 200 μg/ml
  Antifungal index (%): 100%
[11]; Table 3
  IC50 value: <25 µg/mL
[12]; 25 μg/ml, Table 2
  Antifungal index (%): 37%
[12]; 50 μg/ml, Table 2
  Antifungal index (%): 50%
[12]; 100 μg/ml, Table 1
  Antifungal index (%): 69 ± 9.1%
[12]; 100 μg/ml, Table 2
  Antifungal index (%): 69%
[12]; 200 μg/ml, Table 2
  Antifungal index (%): 85%
[12]; [17]
  IC50: 160 µM
[12]; Table 3
  IC50 value: 173 µg/mL (≈ 613 µM)
[13]; 25 μg/ml
  Antifungal index (%): 73%
[13]; 50 μg/ml
  Antifungal index (%): 100%
[13]; 200 μg/ml
  Antifungal index (%): 100%
[13]; Table 3
  IC50 value: <25 µg/mL
[14]; 25 μg/ml
  Antifungal index (%): 58%
[14]; 50 μg/ml
  Antifungal index (%): 75%
[14]; 100 μg/ml
  Antifungal index (%): 82%
[14]; 200 μg/ml
  Antifungal index (%): 84%
[14]; Table 3
  IC50 value: <25 µg/mL
[15]; 25 μg/ml
  Antifungal index (%): 3%
[15]; 50 μg/ml
  Antifungal index (%): 50%
[15]; 100 μg/ml
  Antifungal index (%): 75%
[15]; 200 μg/ml
  Antifungal index (%): 64%
[15]; Table 3
  IC50 value: 50 µg/mL (≈ 177 µM)
[16]; 100 μg/cm^2 on filter paper
  Percent inhibition ratio: 100 ± 0%
[16]; [18]
  Percent inhibition ratio: 100%
[16]; 400 μg/cm^2 on filter paper
  Percent inhibition ratio: 100 ± 0%
